According to ChEMBL document CHEMBL1201862, “PubChem BioAssay data set” (2004):
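Following 48 hours of exposure in 96-well plates, responses at five concentrations were used to interpolate endpoints linearly. GI50 is the concentration that inhibits growth by half.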 The source made the active and inactive calls. Cut-off read from the data, not from the text of the source: active = GI50 up to about 1.1 µM and inactive = higher.

Key:
Experiment in all cases: growth of human tumour cells (NCI), 48 h
[1] = tested on: UO-31
[2] = tested on: SK-MEL-28
[3] = tested on: SK-MEL-2
[4] = tested on: OVCAR-8
[5] = tested on: UACC-257
[6] = tested on: CCRF-CEM
[7] = tested on: NCI-H460
[8] = tested on: U-251
[9] = tested on: SK-MEL-5
[10] = tested on: OVCAR-4
[11] = tested on: K562
[12] = tested on: HT-29
[13] = tested on: SNB-78
[14] = tested on: LXFL 529
[15] = tested on: MOLT-4
[16] = tested on: 786-0
[17] = tested on: SF-539
[18] = tested on: DLD-1
[19] = tested on: NCI-H226
[20] = tested on: HCC 2998
[21] = tested on: DMS-273
[22] = tested on: A549
[23] = tested on: RPMI-8226
[24] = tested on: KM-20L2
[25] = tested on: ACHN
[26] = tested on: NCI-H522
[27] = tested on: NCI-H23
[28] = tested on: LOX IMVI
[29] = tested on: OVCAR-3
[30] = tested on: M19-MEL
[31] = tested on: HOP-92
[32] = tested on: COLO 205
[33] = tested on: HL-60
[34] = tested on: SNB-75
[35] = tested on: SK-OV-3
[36] = tested on: OVCAR-5
[37] = tested on: HCT-116
[38] = tested on: RXF 393
[39] = tested on: HOP-18
[40] = tested on: IGROV-1
[41] = tested on: SF-268
[42] = tested on: TK-10
[43] = tested on: DMS-114
[44] = tested on: SW-620
[45] = tested on: KM12
[46] = tested on: A498
[47] = tested on: HCT-15
[48] = tested on: SF-295
[49] = tested on: Malme-3M
[50] = tested on: UACC-62
[51] = tested on: EKVX
[52] = tested on: CAKI-1
[53] = tested on: SNB-19
[54] = tested on: M14
[55] = tested on: SN12C
[56] = tested on: SR
[57] = tested on: HOP-62

In the case of `CCOC(=O)/C(O)=C/c1cc(OC)cc(=O)o1`, the GI50 [1] is reported as > 100 µM (inactive), the GI50 [2] is reported as > 100 µM (inactive) and the GI50 [3] is reported as > 100 µM (inactive). The GI50 [4] was > 100 µM (inactive), the GI50 [5] was > 100 µM (inactive) and the GI50 [6] was > 100 µM (inactive). For the same molecule, the GI50 [7] was > 100 µM (inactive), the GI50 [8] was > 100 µM (inactive) and the GI50 [9] was > 100 µM (inactive). The GI50 [10] was > 100 µM (inactive), the GI50 [11] was > 100 µM (inactive) and the GI50 [12] was > 100 µM (inactive). For the same molecule, the GI50 [13] was > 100 µM (inactive), the GI50 [14] was > 100 µM (inactive) and the GI50 [15] was > 100 µM (inactive). For the same molecule, the GI50 [16] was > 100 µM (inactive), the GI50 [17] was > 100 µM (inactive) and the GI50 [18] was > 100 µM (inactive). For the same molecule, the GI50 [19] was > 100 µM (inactive), the GI50 [20] was > 100 µM (inactive) and the GI50 [21] was > 100 µM (inactive). The GI50 [22] was > 100 µM (inactive), the GI50 [23] was > 100 µM (inactive) and the GI50 [24] was > 100 µM (inactive). For the same molecule, the GI50 [25] was > 100 µM (inactive), the GI50 [26] was > 100 µM (inactive) and the GI50 [27] was > 100 µM (inactive). For the same molecule, the GI50 [28] was > 100 µM (inactive), the GI50 [29] was > 100 µM (inactive) and the GI50 [30] was > 100 µM (inactive). For the same molecule, the GI50 [31] was > 100 µM (inactive), the GI50 [32] was > 100 µM (inactive) and the GI50 [33] was > 100 µM (inactive). The GI50 [34] was > 100 µM (inactive), the GI50 [35] was > 100 µM (inactive) and the GI50 [36] was > 100 µM (inactive). For the same molecule, the GI50 [37] was > 100 µM (inactive), the GI50 [38] was > 100 µM (inactive) and the GI50 [39] was > 100 µM (inactive). The GI50 [40] was > 100 µM (inactive), the GI50 [41] was > 100 µM (inactive) and the GI50 [42] was > 100 µM (inactive). For the same molecule, the GI50 [43] was > 100 µM (inactive), the GI50 [44] was > 100 µM (inactive) and the GI50 [45] was > 100 µM (inactive). For the same molecule, the GI50 [46] was > 100 µM (inactive), the GI50 [47] was > 100 µM and the GI50 [48] was > 100 µM (inactive). The GI50 [49] was > 100 µM (inactive), the GI50 [50] was > 100 µM (inactive) and the GI50 [51] was > 100 µM (inactive). The GI50 [52] was > 100 µM (inactive), the GI50 [53] was > 100 µM (inactive) and the GI50 [54] was > 100 µM (inactive). The GI50 [55] was > 100 µM (inactive).

With `O=Cc1cc(O)c(O)c(O)c1-c1c(C=O)cc(O)c(O)c1O` the GI50 [1] was > 100 µM (inactive), the GI50 [2] was > 100 µM (inactive) and the GI50 [3] was > 100 µM (inactive). The GI50 [4] was > 100 µM (inactive), the GI50 [5] was > 100 µM (inactive) and the GI50 [6] was 85.7 µM (inactive). The GI50 [7] was > 100 µM (inactive), the GI50 [8] was > 100 µM (inactive) and the GI50 [9] was > 100 µM (inactive). The GI50 [10] was > 100 µM (inactive), the GI50 [11] was 67.6 µM (inactive) and the GI50 [12] was > 100 µM (inactive). For the same molecule, the GI50 [13] was > 100 µM (inactive), the GI50 [14] was > 100 µM (inactive) and the GI50 [15] was > 100 µM (inactive). The GI50 [16] was > 100 µM (inactive), the GI50 [17] was > 100 µM (inactive) and the GI50 [18] was > 100 µM (inactive). The GI50 [19] was > 100 µM (inactive), the GI50 [20] was > 100 µM (inactive) and the GI50 [21] was > 100 µM (inactive). The GI50 [22] was > 100 µM (inactive), the GI50 [23] was 64.3 µM (inactive) and the GI50 [24] was > 100 µM (inactive). The GI50 [25] was > 100 µM (inactive), the GI50 [26] was > 100 µM (inactive) and the GI50 [27] was > 100 µM (inactive). The GI50 [28] was > 100 µM (inactive), the GI50 [29] was > 100 µM (inactive) and the GI50 [30] was > 100 µM (inactive). The GI50 [32] was > 100 µM (inactive), the GI50 [33] was > 100 µM (inactive) and the GI50 [56] was 82.8 µM (inactive). For the same molecule, the GI50 [34] was > 100 µM (inactive), the GI50 [35] was > 100 µM (inactive) and the GI50 [36] was > 100 µM (inactive). For the same molecule, the GI50 [37] was > 100 µM (inactive), the GI50 [39] was > 100 µM (inactive) and the GI50 [40] was > 100 µM (inactive). For the same molecule, the GI50 [41] was > 100 µM (inactive), the GI50 [42] was > 100 µM (inactive) and the GI50 [43] was 79.8 µM (inactive). The GI50 [44] was > 100 µM (inactive), the GI50 [45] was > 100 µM (inactive) and the GI50 [57] was > 100 µM (inactive). The GI50 [46] was > 100 µM (inactive), the GI50 [47] was > 100 µM and the GI50 [48] was > 100 µM (inactive). The GI50 [49] was > 100 µM (inactive), the GI50 [50] was > 100 µM (inactive) and the GI50 [51] was > 100 µM (inactive). For the same molecule, the GI50 [52] was > 100 µM (inactive), the GI50 [53] was > 100 µM (inactive) and the GI50 [54] was > 100 µM (inactive). The GI50 [55] was > 100 µM (inactive).
